# Assay results taken from PubChem BioAssay (NCI).
# Values joined by “and” are separate entries in the source; they are usually repeats but may differ in a detail not shown here. Identical values can stand only once.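 A five-concentration, 48-hour dose response in 96-well plates underlies each endpoint, interpolated linearly between surrounding concentrations. Here, GI50 denotes the concentration required for 50% inhibition of growth. TGI: total growth inhibition.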
# Key:
# Test in all cases: NCI anticancer screen, dose series, 48 h
# DU-145 prostate = tested on: DU-145 prostate
# HCT-15 colon = tested on: HCT-15 colon
# KM12 colon = tested on: KM12 colon
# MDA-MB-231 breast = tested on: MDA-MB-231 breast
# NCI-H226 lung = tested on: NCI-H226 lung
# NCI-H522 lung = tested on: NCI-H522 lung
# SF-295 CNS = tested on: SF-295 CNS
# SK-MEL-5 melanoma = tested on: SK-MEL-5 melanoma
# SNB-19 CNS = tested on: SNB-19 CNS
# UACC-62 melanoma = tested on: UACC-62 melanoma
Compound,GI50 (DU-145 prostate) [µM],TGI (DU-145 prostate),GI50 (HCT-15 colon) [µM],TGI (HCT-15 colon) [µM],GI50 (KM12 colon) [µM],TGI (KM12 colon),GI50 (MDA-MB-231 breast) [µM],TGI (MDA-MB-231 breast),GI50 (NCI-H226 lung) [µM],TGI (NCI-H226 lung) [µM],GI50 (NCI-H522 lung),TGI (NCI-H522 lung),GI50 (SF-295 CNS) [µM],TGI (SF-295 CNS) [µM],GI50 (SK-MEL-5 melanoma),TGI (SK-MEL-5 melanoma),GI50 (SNB-19 CNS) [µM],TGI (SNB-19 CNS),GI50 (UACC-62 melanoma) [µM],TGI (UACC-62 melanoma)
COc1cc(-c2n/c(=C\c3c(O)[nH]c4ccccc34)cc3c2=Nc2ccccc2-3)cc(OC)c1OC,1.12,> 100 µM,1.72,> 100,2.03,16.4 µM,2.11,> 28.2 µM,4.23,> 100,0.247 µM,0.664 µM,0.666,> 38.4,0.289 µM,2.88 µM,2.68,> 100 µM,0.707,> 100 µM
COc1ccc(-c2cc(-c3nnc(SCC(=O)Nc4ccc(C(C)=O)cc4)o3)c3ccccc3n2)cc1,> 100,> 100 µM,> 100,> 100,> 100,> 100 µM,19.4,> 100 µM,43.6,> 100,30.2 µM,> 100 µM,26.4,> 100,> 100 µM,> 100 µM,12.6,> 100 µM,27.1,> 100 µM
C=C(C)[C@@H]1CC[C@]2(C(=O)NCCNCCNCCN)CC[C@]3(C)[C@H](CC[C@@H]4[C@@]5(C)CCC(=O)C(C)(C)[C@@H]5CC[C@]43C)[C@@H]12,7.47,14.1 µM,7.65,15.7,8.47,16.6 µM,8.04,15.8 µM,7.74,17.1,8.72 µM,18.5 µM,9.42,18.3,6.99 µM,13.5 µM,8.5,18.1 µM,8.96,19.1 µM
COC(=O)[C@]12CC=C3O[C@@H]4OC5(CCCCC5)O[C@@H]4[C@H]3C1C(=O)C=CC2=O (stereo partly specified),,47.2 µM,,34.2,,20.7 µM,,32.8 µM,,34.5,,15.4 µM,,42.2,,32.8 µM,,66.2 µM,,30.2 µM
COC(=O)[C@@H]1CCCN1C(=O)[C@H]1CCCN1C(=O)[C@@H](Cc1c[nH]c2ccccc12)NC(=S)Nc1cc(C(F)(F)F)cc(C(F)(F)F)c1,2.24,4.63 µM,3.35,12.8,2.84,8.01 µM,2.34,5.6 µM,2.86,11.7,2.47 µM,6.65 µM,2.27,5.71,2.45 µM,7.11 µM,3.78,14.4 µM,2.38,6.29 µM
Cc1cc(NC(=O)NC(=O)c2ccccc2NC(=O)CN)ccc1Oc1ncc(Br)cn1,0.342,20.1 µM and 15.9 µM,,42.2,0.146,34.5 µM and > 100 µM,,5.17 µM and 14 µM,0.238,,0.269 µM and 0.096 µM,2.24 µM and 0.472 µM,< 0.01,,0.2 µM and 0.0445 µM,43.9 µM and 26.8 µM,0.336,26.3 µM and 16.4 µM,0.112,19.8 µM and 15.4 µM
Cc1ccc(Oc2nc3ccccc3cc2-c2nnc(Cn3c(COc4ccccc4)nc4ccccc43)o2)cc1,5.46,45.7 µM,2.14,7.69,2.85,11.8 µM,1.64,4.62 µM,5.99,31.4,6.34 µM,21.1 µM,3.48,14.1,1.9 µM,3.97 µM,3.78,17 µM,5.62,20.7 µM
